According to patent publication US10526358B2, “Crystalline forms” (GRUNENTHAL GMBH, priority 2016, dated 2020):

Legend:
[1] = apparent water solubility at room temperature; type: physicochemical
[2] = cited from earlier work
[3] = FDA SBA; cited from earlier work
[4] = FDA SBA; cited from earlier work; remark: listed apart in the source
[5] = in vivo; cited from earlier work

**Q.** For `O=P(O)(O)C(O)(Cn1ccnc1)P(=O)(O)O` [Zoledronic acid, (1-hydroxy-2-imidazol-1-yl-1-phosphono-ethyl)phosphonic acid], which apparent water solubility [1] is on record?
**A.** few

**Q.** And the “solubility in 0.1 N HCl solution” value ([2]; 0.1 N HCl)?
**A.** sparingly soluble

**Q.** And the “solubility in 0.1 N NaOH” value ([2]; 0.1 N NaOH)?
**A.** freely soluble

**Q.** And the “solubility in various organic solvents” value ([2]; various organic solvents)?
**A.** practically insoluble

**Q.** And the solubility in water ([2]; water)?
**A.** sparingly soluble

**Q.** What about the oral bioavailability [3] of the same compound?
**A.** approximately 1%

**Q.** What about the “permeability in the GI tract” value [4] of the same compound?
**A.** poor permeability

**Q.** And the “gastric and intestinal irritations” value [5]?
**A.** severe gastric and intestinal irritations
